Test results taken from patent publication US20160138057A1, “Methods for enhancing alpha-ketoglutarata production in Yarrowia lipolytica” (priority 2014, published 2016).

Legend:
[1] = system: recombinant Y. lipolytica (Y. lipolytica-GDH2); test: Intracellular glutamate content of recombinant strain fermented with L-methionine imide; assay type: cell-based, Yarrowia lipolytica
Description: Determination of GDH catalytic activity and intracellular amino acid content: cells were collected by centrifugation in the exponential growth phase and washed by 0.9% saline, then suspended by 10 mL buffer (0.1 M KH2PO4-K2HPO4, 1 mM EDTA, 0.01 mM DTT, pH 7.5). Pickling glass beads was added for grinding for 5 min at 4° C., and then centrifuged at 13000×g for 10 min. The supernatant was used for the determination of catalytic activity of GDH and the intracellular amino acid content.
Intracellular glutamate and glutamine was determinated by the following steps: 200 μl cell disruption supernatant and 800 μL 5% trichloroacetic acid was sequentially added to an 1 mL EP tube and standed for 5 min. 1 mL sample was filtered by 0.22 μm aqueous filter head and then centrifuged at 10000 rpm for 10 min. The amino acid content of the treated sample was measured by HPLC.
The HPLC conditions were as follows: pre-column derivatization of sample was carried out by […] (OPA) and 9-Fluorenylmethyl Chloroformate. […]
The wild type Y. lipolytica WSH-Z06 and the recombinant strain Y. lipolytica-GDH2 were incubated in 500 mL flasks with 50 mL fermentation medium at 28° C., 200 rpm for 96 hours at the same time. […] The glutamate contents were quantified by the methods described above.

[2] = system: recombinant Y. lipolytica (Y. lipolytica-GDH2); test: Extracellular α-KG accumulation of recombinant strain fermented with L-methionine imide; assay type: cell-based, Yarrowia lipolytica
Description: Fermentation medium: 36.1 mg·L^−1 L-methionine imine, 100 g·L^−1 glycerol, 3 g·L^−1 (NH4)2SO4, 3 g·L^−1 KH2PO4, 1.2 g·L^−1 MgSO4·7H2O, 0.5 g·L^−1 NaCl, 0.1 g·L^−1 K2HPO4, 2×10^−7 g·L^−1 thiamine hydrochloride, pH 4.5, and then sterilized at 115° C. for 15 min. CaCO3 sterilized at 121° C. for 30 min was added to 20 g·L^−1 before inoculation.
Extracellular α-KG was quantified by HPLC. Appropriate supernatant of fermentation broth centrifuged at 13000×g was diluted 50-fold with ultrapure water and filtrated by 0.22 μm filter for HPLC analysis. The column was Aminex HPX-87H ion exchange column and 5 mmol·L^−1 sulfuric acid solution (550 μL concentrated sulfuric acid volumed to 2 L) filtrated by 0.22 μm filter and degassed was used as mobile phase. The velocity of flow was 0.6 mL·min^−1 with a column temperature at 35° C. and a injection volume of 10 μL. The wavelength of UV detector was 210 nm.
α-KG was produced as the method described above. The wild type Y. lipolytica WSH-Z06 and the recombinant strain Y. lipolytica-GDH2 were incubated in 500 mL flasks with 50 mL fermentation medium containing L-methionine imide at 28° C., 200 rpm for 144 hours at the same time to accumulate α-KG extracellular.

Structure (SMILES): CSCC[C@H](N)C(N)=O [L-methionine imide]
- content of glutamate intracellular ([1]; 0.2 mM L-methionine imide added during fermentation of the recombinant strain): 0.99 μmol per mg dry cells weight (DCW)
- increase of intracellular glutamate content ([1]; 0.2 mM L-methionine imide, recombinant strain, versus wild type strain): 86.3%
- increase of extracellular α-KG accumulation ([2]; 0.2 mM L-methionine imide, versus wild type strain): 32.4%
- accumulation of α-KG extracellular ([2]; fermentation medium containing L-methionine imide (0.2 mM), 28° C., 200 rpm, 144 hours): 19.2 g/L
